Laboratory results taken from patent US9695155B2, “Herbicidal substituted pyrimidinyloxy benzene compounds” (E. I. DU PONT DE NEMOURS AND COMPANY, priority 2013, dated 2017).

Experiments:
Experiment in all cases: Test E preemergence
Brazilian crabgrass = assay type: in vivo, Digitaria horizontalis; conditions: for Crabgrass, Brazil plant response rating: scale 0 to 100 (0 no effect, 100 complete control); for Plant response rating, Crabgrass, Brazil: scale 0 to 100, 0 no effect, 100 complete control
How it was run: (§1)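 Test chemicals formulated in a non-phytotoxic solvent mixture containing a surfactant were applied preemergence to seeds in silt loam soil or postemergence to plants at the 1- to 4-leaf stage in potting mix. After 14 to 21 days in a greenhouse, injury was visually rated against controls on a 0-100 scale (0 = no effect, 100 = complete control).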

goosegrass = assay type: in vivo, Eleusine indica; conditions: for Goosegrass plant response rating: scale 0 to 100 (0 no effect, 100 complete control); for Plant response rating, Goosegrass: scale 0 to 100, 0 no effect, 100 complete control
Excerpt: (§2) Seeds of plant species selected from corn (Zea mays), soybean (Glycine max), velvetleaf (Abutilon theophrasti), lambsquarters (Chenopodium album), wild poinsettia (Euphorbia heterophylla), palmer pigweed (Amaranthus palmeri), waterhemp (common waterhemp, Amaranthus rudis), surinam grass (Brachiaria decumbens), large (Lg) crabgrass (Digitaria sanguinalis), Brazilian crabgrass (Digitaria horizontalis), fall panicum (Panicum dichotomiflorum), giant foxtail (Setaria faberii), green foxtail (Setaria viridis), goosegrass (Eleusine indica), johnsongrass (Sorghum halepense), ragweed (common ragweed, Ambrosia elatior), barnyardgrass (Echinochloa crus-galli), sandbur (southern sandbur, Cenchrus echinatus), arrowleaf sida (Sida rhombifolia), Italian ryegrass (Lolium multiflorum), dayflower (Virginia (VA) dayflower, Commelina virginica), field bindweed (Convolvulus arvensis), morningglory (Ipomoea coccinea), nightshade (eastern black nightshade, Solanum ptycanthum), kochia (Kochia scoparia), yellow nutsedge (Cyperus esculentus), cocklebur (common cocklebur, Xanthium strumarium), smartweed (ladysthumb smartweed, and hairy beggarticks (Bidens pilosa), were planted into a silt loam soil and treated preemergence with test chemicals formulated in a non-phytotoxic solvent mixture which included a surfactant.
(§3) At the same time, plants from these crop and weed species and also horseweed (Canada horseweed, Conyza canadensis), waterhemp_RES1, (ALS & Triazine resistant common waterhemp, Amaranthus rudis), and waterhemp_RES2, (ALS & HPPD resistant common waterhemp, Amaranthus rudis) were planted in pots containing Redi-Earth® planting medium (Scotts Company, 14111 Scottslawn Road, Marysville, Ohio 43041) comprising spaghnum peat moss, vermiculite, wetting agent and starter nutrients were treated with postemergence applications of test chemicals formulated in the same manner. Plants ranged in height from 2 to 18 cm for postemergence treatments (1- to 4-leaf stage). Treated plants and controls were maintained in a greenhouse for 14 to 21 days, after which time all species were compared to controls and visually evaluated. Plant response ratings, summarized in Table E, are based on a scale of 0 to 100 where 0 is no effect and 100 is complete control. A dash (-) response means no test result.

wild poinsettia = assay type: in vivo, Euphorbia heterophylla; conditions: for Poinsettia, Wild plant response rating: scale 0 to 100 (0 no effect, 100 complete control); for Plant response rating, Poinsettia, Wild: scale 0 to 100, 0 no effect, 100 complete control
How it was run: as §1

lambsquarters = assay type: in vivo, Chenopodium album; conditions: for Lambsquarters plant response rating: scale 0 to 100 (0 no effect, 100 complete control); for Plant response rating, Lambsquarters: scale 0 to 100, 0 no effect, 100 complete control
How it was run: as §1

kochia = assay type: in vivo, Kochia scoparia; conditions: for Kochia plant response rating: scale 0 to 100 (0 no effect, 100 complete control); for Plant response rating, Kochia: scale 0 to 100, 0 no effect, 100 complete control
How it was run: as §1

hairy beggarticks = assay type: in vivo, Bidens pilosa; conditions: for Beggarticks plant response rating: scale 0 to 100 (0 no effect, 100 complete control); for Plant response rating, Beggarticks: scale 0 to 100, 0 no effect, 100 complete control
Excerpt: as §2, §3

yellow nutsedge = assay type: in vivo, Cyperus esculentus; conditions: for Nutsedge, Yellow plant response rating: scale 0 to 100 (0 no effect, 100 complete control); for Plant response rating, Nutsedge, Yellow: scale 0 to 100, 0 no effect, 100 complete control
How it was run: as §1

field bindweed = assay type: in vivo, Convolvulus arvensis; conditions: for Field Bindweed plant response rating: scale 0 to 100 (0 no effect, 100 complete control); for Plant response rating, Field Bindweed: scale 0 to 100, 0 no effect, 100 complete control
How it was run: as §1

waterhemp = assay type: in vivo, Amaranthus rudis; conditions: for Waterhemp plant response rating: scale 0 to 100 (0 no effect, 100 complete control); for Plant response rating, Waterhemp: scale 0 to 100, 0 no effect, 100 complete control
How it was run: as §1

N#Cc1cccc(Oc2ncc(F)cn2)c1-n1cc(Cl)cn1 [Compound 73]
Crabgrass, Brazil plant response rating (Brazilian crabgrass; 16 g ai/ha): 25
Crabgrass, Brazil plant response rating (Brazilian crabgrass; 31 g ai/ha): 95
Crabgrass, Brazil plant response rating (Brazilian crabgrass; 62 g ai/ha): 100
Plant response rating, Crabgrass, Brazil (Brazilian crabgrass; 125 g ai/ha): 100
Plant response rating, Crabgrass, Brazil (Brazilian crabgrass; 250 g ai/ha): 100
Goosegrass plant response rating (goosegrass; 16 g ai/ha): 0
Goosegrass plant response rating (goosegrass; 31 g ai/ha): 20
Goosegrass plant response rating (goosegrass; 62 g ai/ha): 70
Plant response rating, Goosegrass (goosegrass; 125 g ai/ha): 98
Plant response rating, Goosegrass (goosegrass; 250 g ai/ha): 100
Poinsettia, Wild plant response rating (wild poinsettia; 16 g ai/ha): 0
Poinsettia, Wild plant response rating (wild poinsettia; 31 g ai/ha): 30
Poinsettia, Wild plant response rating (wild poinsettia; 62 g ai/ha): 35
Plant response rating, Poinsettia, Wild (wild poinsettia; 125 g ai/ha): 65
Plant response rating, Poinsettia, Wild (wild poinsettia; 250 g ai/ha): 85
Lambsquarters plant response rating (lambsquarters; 16 g ai/ha): 10
Lambsquarters plant response rating (lambsquarters; 31 g ai/ha): 65
Lambsquarters plant response rating (lambsquarters; 62 g ai/ha): 98
Plant response rating, Lambsquarters (lambsquarters; 125 g ai/ha): 100
Plant response rating, Lambsquarters (lambsquarters; 250 g ai/ha): 100
Kochia plant response rating (kochia; 16 g ai/ha): 5
Kochia plant response rating (kochia; 31 g ai/ha): 75
Kochia plant response rating (kochia; 62 g ai/ha): 98
Plant response rating, Kochia (kochia; 125 g ai/ha): 98
Plant response rating, Kochia (kochia; 250 g ai/ha): 100
Beggarticks plant response rating (hairy beggarticks; 16 g ai/ha, preemergence): 5
Beggarticks plant response rating (hairy beggarticks; 31 g ai/ha, preemergence): 5
Plant response rating, Beggarticks (hairy beggarticks; Preemergence, 62 g ai/ha): 20
Plant response rating, Beggarticks (hairy beggarticks; preemergence, 125 g ai/ha): 50
Plant response rating, Beggarticks (hairy beggarticks; preemergence, 250 g ai/ha): 75
Nutsedge, Yellow plant response rating (yellow nutsedge; 16 g ai/ha): 0
Nutsedge, Yellow plant response rating (yellow nutsedge; 31 g ai/ha): 0
Nutsedge, Yellow plant response rating (yellow nutsedge; 62 g ai/ha): 50
Plant response rating, Nutsedge, Yellow (yellow nutsedge; 125 g ai/ha): 40
Plant response rating, Nutsedge, Yellow (yellow nutsedge; 250 g ai/ha): 30
Field Bindweed plant response rating (field bindweed; 16 g ai/ha): 0
Field Bindweed plant response rating (field bindweed; 31 g ai/ha): 15
Field Bindweed plant response rating (field bindweed; 62 g ai/ha): 50
Plant response rating, Field Bindweed (field bindweed; 125 g ai/ha): 75
Plant response rating, Field Bindweed (field bindweed; 250 g ai/ha): 85
Waterhemp plant response rating (waterhemp; 16 g ai/ha): 65
Waterhemp plant response rating (waterhemp; 31 g ai/ha): 100
Waterhemp plant response rating (waterhemp; 62 g ai/ha): 100
Plant response rating, Waterhemp (waterhemp; 125 g ai/ha): 100
Plant response rating, Waterhemp (waterhemp; 250 g ai/ha): 100

N#Cc1cccc(Oc2ncc(Cl)cn2)c1-n1cc(C(F)(F)F)cn1 [Compound 58, 3-[(5-chloro-2-pyrimidinyl)oxy]-2-[4-(trifluoromethyl)-1H-pyrazol-1-yl]benzonitrile]
Crabgrass, Brazil plant response rating (Brazilian crabgrass; 16 g ai/ha): 100
Crabgrass, Brazil plant response rating (Brazilian crabgrass; 31 g ai/ha): 100
Crabgrass, Brazil plant response rating (Brazilian crabgrass; 62 g ai/ha): 100
Plant response rating, Crabgrass, Brazil (Brazilian crabgrass; 125 g ai/ha): 100
Plant response rating, Crabgrass, Brazil (Brazilian crabgrass; 250 g ai/ha): 100
Goosegrass plant response rating (goosegrass; 16 g ai/ha): 10
Goosegrass plant response rating (goosegrass; 31 g ai/ha): 70
Goosegrass plant response rating (goosegrass; 62 g ai/ha): 95
Plant response rating, Goosegrass (goosegrass; 125 g ai/ha): 100
Plant response rating, Goosegrass (goosegrass; 250 g ai/ha): 100
Poinsettia, Wild plant response rating (wild poinsettia; 16 g ai/ha): 5
Poinsettia, Wild plant response rating (wild poinsettia; 31 g ai/ha): 15
Poinsettia, Wild plant response rating (wild poinsettia; 62 g ai/ha): 90
Plant response rating, Poinsettia, Wild (wild poinsettia; 125 g ai/ha): 100
Plant response rating, Poinsettia, Wild (wild poinsettia; 250 g ai/ha): 100
Lambsquarters plant response rating (lambsquarters; 16 g ai/ha): 98
Lambsquarters plant response rating (lambsquarters; 31 g ai/ha): 98
Lambsquarters plant response rating (lambsquarters; 62 g ai/ha): 98
Plant response rating, Lambsquarters (lambsquarters; 125 g ai/ha): 98
Plant response rating, Lambsquarters (lambsquarters; 250 g ai/ha): 98
Kochia plant response rating (kochia; 16 g ai/ha): 35
Kochia plant response rating (kochia; 31 g ai/ha): 100
Kochia plant response rating (kochia; 62 g ai/ha): 100
Plant response rating, Kochia (kochia; 125 g ai/ha): 100
Plant response rating, Kochia (kochia; 250 g ai/ha): 100
Beggarticks plant response rating (hairy beggarticks; 16 g ai/ha, preemergence): 0
Beggarticks plant response rating (hairy beggarticks; 31 g ai/ha, preemergence): 0
Plant response rating, Beggarticks (hairy beggarticks; Preemergence, 62 g ai/ha): 0
Plant response rating, Beggarticks (hairy beggarticks; preemergence, 125 g ai/ha): 15
Plant response rating, Beggarticks (hairy beggarticks; preemergence, 250 g ai/ha): 100
Nutsedge, Yellow plant response rating (yellow nutsedge; 16 g ai/ha): 0
Nutsedge, Yellow plant response rating (yellow nutsedge; 31 g ai/ha): 5
Nutsedge, Yellow plant response rating (yellow nutsedge; 62 g ai/ha): 25
Plant response rating, Nutsedge, Yellow (yellow nutsedge; 125 g ai/ha): 60
Plant response rating, Nutsedge, Yellow (yellow nutsedge; 250 g ai/ha): 80
Field Bindweed plant response rating (field bindweed; 16 g ai/ha): 0
Field Bindweed plant response rating (field bindweed; 31 g ai/ha): 20
Field Bindweed plant response rating (field bindweed; 62 g ai/ha): 70
Plant response rating, Field Bindweed (field bindweed; 125 g ai/ha): 98
Plant response rating, Field Bindweed (field bindweed; 250 g ai/ha): 100
Waterhemp plant response rating (waterhemp; 16 g ai/ha): 98
Waterhemp plant response rating (waterhemp; 31 g ai/ha): 100
Waterhemp plant response rating (waterhemp; 62 g ai/ha): 100
Plant response rating, Waterhemp (waterhemp; 125 g ai/ha): 100
Plant response rating, Waterhemp (waterhemp; 250 g ai/ha): 100
